Test results taken from patent US10584346B2, “HSF-like transcription factor, TBF1, is a major molecular switch for growth-to-defense transition in plants” (Duke University, priority 2011, dated 2020).

How the values were obtained:
TBF1 promoter = experiment: Induction of the TBF1 promoter by chemical inducers
Psm ES4326 = experiment: Bacterial infection assay: SA- and MAMP-induced resistance to Psm ES4326 in Arabidopsis plants; type: in vivo, Pseudomonas syringae pv. maculicola; conditions: 1 mM SA spray 24 hrs prior to infection, Psm ES4326 OD600nm=0.001
Procedure: Infection of Arabidopsis plants with Pseudomonas syringae pv. maculicola (Psm) ES4326 was performed as described previously. To test for enhanced disease susceptibility, a bacterial suspension at OD600nm=0.0001 was infiltrated into 2-3 leaves per plant and 12 plants/genotype. Bacterial growth was quantified 3 days later. To test for SAR and MAMP-induced resistance, plants were pre-treated with relevant compounds (1 mM SA, spray 24 hrs prior to infection; 10 μM elf18, infiltration 2 hrs prior to infection; 10 μM flg22, infiltration 2 hrs prior to infection), and subsequently inoculated with Psm ES4326 (OD600nm=0.001) into 2-3 leaves per plant and 12 plants/genotype/treatment. Sampling was performed 3 days post inoculation.

Arabidopsis seedlings [1] = experiment: Seedling growth (fresh weight) on MS media supplemented with SA, elf18 or flg22; type: in vivo; conditions: WT plants; 10 days on MS with increasing concentrations of SA or 10 μM elf18
Procedure: (Panel 11A) Fresh weight of ten seedlings grown for 10 days on plates with MS growth media (Ctrl), MS supplemented with increasing concentrations of SA or 10 μM elf18. Error bars represent the standard deviation of three replicates. This experiment was repeated three times with similar results. Statistical analysis was performed using the Student's t-test, *, p-value<0.05, **, p-value<0.01, ***, p-value≤0.001.
Fresh weight of ten seedlings grown for 10 days on plates with regular MS growth media (−f1g22) or MS supplemented with 10 μM f1g22 (+f1g22). Error bars represent standard deviation of three replicates. The experiment was repeated three times with similar results.

Arabidopsis seedlings [2] = experiment: Tunicamycin sensitivity assay (seedling recovery/survival); type: in vivo; conditions: two-day treatment with tunicamycin at 300 μg/L, measured 10 days later
Procedure: (Panel 11B) Seedling recovery after a two-day treatment with the UPR inducer tunicamycin at 300 μg/L was measured 10 days later by counting the percentage of surviving seedlings (left), and by phenotype observations (right). Error bars represent standard deviation of three replicates. This experiment was repeated five times with similar results. Statistical analysis was performed using the Student's t-test, ***, p-value≤0.001.
This assay was performed as described in earlier studies.

Molecule	induction of the TBF1 promoter (TBF1 promoter)	also measured
O=[N+]([O-])[O-].[Ag+] [AgNO3]	shown to induce the TBF1 promoter	
[Cl-].[Na+] [NaCl]	shown to induce the TBF1 promoter	
O=C(O)c1ccccc1O [SA, salicylic acid]	shown to induce the TBF1 promoter	reduction in Psm ES4326 growth in response to induction by SA (Psm ES4326; WT plants, 3 days post inoculation): ~2 log; reduction in Psm ES4326 growth in response to induction by SA (Psm ES4326; tbf1 mutant): less than 1 log; growth of seedlings (fresh weight) (Arabidopsis seedlings [1]): significantly inhibited
CC1=CC(=O)CC(C)(C)[C@@]1(O)/C=C/C(C)=C\C(=O)O [abscisic acid]	shown to induce the TBF1 promoter	
C[C@@H]1C[C@@H]([C@H](O)CC2CC(=O)NC(=O)C2)C(=O)[C@@H](C)C1 [cycloheximide]	shown to induce the TBF1 promoter	
C=C [ethylene]	shown to induce the TBF1 promoter	
CC/C=C\C[C@H]1C(=O)CC[C@@H]1CC(=O)O [jasmonic acid]	shown to induce the TBF1 promoter	
OC[C@@H](O)[C@@H](O)[C@H](O)[C@H](O)CO [mannitol]	shown to induce the TBF1 promoter	
CC/C=C\CC1C(=O)CCC1CC(=O)OC (centres unmarked) [methyl ester of jasmonic acid]	shown to induce the TBF1 promoter	
tunicamycin		seedling survival rate (Arabidopsis seedlings [2]; WT): ~60%; seedling survival rate (Arabidopsis seedlings [2]; tbf1 mutant): ~20%
